Several values for one entry are separate records, joined by “and”; a condition that tells them apart may be missing. Identical values can stand only once.
Assay: Serial tail vein bleed PK study of 2-Br-LSD and 2-Br-LSD prodrugs in SD rats; 2-Br-LSD measured in plasma
Details: analyte 2-Br-LSD in plasma; for AUC(0-t): AUC0-last; for half-life: T½
[1] = 2-Br-LSD 1 mg/kg IV, male SD rat, individual animal
[2] = 2-Br-LSD 4 mg/kg oral, male SD rat, individual animal
[3] = male, Sprague-Dawley, rat, plasma, iv, 1 mg/kg, 2-Br-LSD 1 mg/kg IV, male SD rat, individual animal
[4] = male, Sprague-Dawley, rat, plasma, iv, 1 mg/kg, 2-Br-LSD 1 mg/kg IV, male SD rats, mean of 3
[5] = male, Sprague-Dawley, rat, plasma, po, 4 mg/kg, 2-Br-LSD 4 mg/kg oral, male SD rat, individual animal
[6] = male, Sprague-Dawley, rat, plasma, po, 4 mg/kg, 2-Br-LSD 4 mg/kg oral, male SD rats, mean of 3

With `CCN(CC)C(=O)[C@@H]1C=C2c3cccc4[nH]c(Br)c(c34)C[C@H]2N(C)C1` [Example 2-Br-LSD, (6aR,9R)-5-bromo-N,N-diethyl-7-methyl-6,6a,8,9-tetrahydro-4H-indolo[4,3-fg]quinoline-9-carboxamide] the AUC0-inf [1] was 269 ng·h/mL and 308 ng·h/mL, the AUC0-last [1] was 268 ng·h/mL and 304 ng·h/mL and the Cmax [1] was 658 ng/mL and 500 ng/mL. The Tlast [1] was 4.00 h, the T½ [1] was 37.7 min and 44.8 min and the Tlast (2-Br-LSD 1 mg/kg IV, male SD rats, mean of 3) was 4.00 h. The AUC0-inf [2] was 1960 ng·h/mL and 1450 ng·h/mL, the AUC0-last [2] was 1430 ng·h/mL and 997 ng·h/mL and the Cmax [2] was 366.0 ng/mL and 209.0 ng/mL. For the same molecule, the Tlast [2] was 7 h, the T½ [2] was 240 min and the Tlast (2-Br-LSD 4 mg/kg oral, male SD rats, mean of 3) was 7 h. The AUC0-inf (male, Sprague-Dawley, rat, plasma, iv, 1 mg/kg, AUC0-inf, 2-Br-LSD 1 mg/kg IV, male SD rat, individual animal) was 280 ng·h/mL, the AUC0-inf (male, Sprague-Dawley, rat, plasma, iv, 1 mg/kg, AUC0-inf, 2-Br-LSD 1 mg/kg IV, male SD rats, mean of 3) was 286 ng·h/mL and the AUC(0-t) [3] was 278 ng·h/mL. The AUC(0-t) [4] was 283 ng·h/mL, the Cmax (male, Sprague-Dawley, rat, plasma, iv, 1 mg/kg, Cmax, 2-Br-LSD 1 mg/kg IV, male SD rat, individual animal) was 577 ng/mL and the Cmax (male, Sprague-Dawley, rat, plasma, iv, 1 mg/kg, Cmax, 2-Br-LSD 1 mg/kg IV, male SD rats, mean of 3) was 578 ng/mL. It also gave a half-life [3] of 44.3 min, a half-life [4] of 42.2 min and an AUC0-inf (male, Sprague-Dawley, rat, plasma, po, 4 mg/kg, AUC0-inf, 2-Br-LSD 4 mg/kg oral, male SD rat, individual animal) of 1780 ng·h/mL. The AUC0-inf (male, Sprague-Dawley, rat, plasma, po, 4 mg/kg, AUC0-inf, 2-Br-LSD 4 mg/kg oral, male SD rats, mean of 3) was 1730 ng·h/mL, the AUC(0-t) [5] was 1350 ng·h/mL and the AUC(0-t) [6] was 1260 ng·h/mL. The Cmax (male, Sprague-Dawley, rat, plasma, po, 4 mg/kg, Cmax, 2-Br-LSD 4 mg/kg oral, male SD rat, individual animal) was 338 ng/mL, the Cmax (male, Sprague-Dawley, rat, plasma, po, 4 mg/kg, Cmax, 2-Br-LSD 4 mg/kg oral, male SD rats, mean of 3) was 304 ng/mL and the half-life [5] was 216 min. It also gave a half-life [6] of 222 min.

Source: US20250129064A1, “PRODRUGS OF 2-BROMO-LSD (2-BRO[…] DIETHYLAMIDE)” (Terran Biosciences Inc., priority 2022, published 2025)
